Data: ChEMBL document CHEMBL2380196, “New anticancer active and selective phenylene-bisbenzothiazoles: synthesis, antiproliferative evaluation and DNA binding” (Eur J Med Chem, 2013)

Key:
HeLa [1] = experiment: Cell cycle arrest in human HeLa cells assessed as accumulation in sub-G1 phase at 10 uM after 48 hrs using propidium iodide staining by flow cytometry relative to control; type: functional
SK-BR-3 [2] = experiment: Cell cycle arrest in human SKBR3 cells assessed as accumulation in sub-G1 phase at 10 uM after 24 hrs using propidium iodide staining by flow cytometry relative to control; type: functional
SW-620 = experiment: Antiproliferative activity against human SW620 cells after 72 hrs by MTT assay; type: functional, cell-based; conditions: SW-620, 72 h; for CC50: read-out: LC50 (the source's name)
SK-BR-3 [3] = experiment: Cell cycle arrest in human SKBR3 cells assessed as accumulation in G1 phase at 10 uM after 48 hrs using propidium iodide staining by flow cytometry relative to control; type: functional
HeLa [4] = experiment: Cell cycle arrest in human HeLa cells assessed as accumulation in G1 phase at 10 uM after 24 hrs using propidium iodide staining by flow cytometry relative to control; type: functional
HeLa [5] = experiment: Cell cycle arrest in human HeLa cells assessed as accumulation in G2/M phase at 10 uM after 24 hrs using propidium iodide staining by flow cytometry relative to control; type: functional
MIA PaCa-2 [6] = experiment: Cell cycle arrest in human MIAPaCa2 cells assessed as accumulation in G2/M phase at 5 uM after 48 hrs using propidium iodide staining by flow cytometry relative to control; type: functional
SK-BR-3 [7] = experiment: Cell cycle arrest in human SKBR3 cells assessed as accumulation in G2/M phase at 5 uM after 24 hrs using propidium iodide staining by flow cytometry relative to control; type: functional
MIA PaCa-2 [8] = experiment: Cell cycle arrest in human MIAPaCa2 cells assessed as accumulation in G1 phase at 10 uM after 48 hrs using propidium iodide staining by flow cytometry relative to control; type: functional
HeLa [9] = experiment: Cell cycle arrest in human HeLa cells assessed as accumulation in sub-G1 phase at 5 uM after 48 hrs using propidium iodide staining by flow cytometry relative to control; type: functional
MIA PaCa-2 [10] = experiment: Cell cycle arrest in human MIAPaCa2 cells assessed as accumulation in G1 phase at 5 uM after 48 hrs using propidium iodide staining by flow cytometry relative to control; type: functional
HeLa [11] = experiment: Cell cycle arrest in human HeLa cells assessed as accumulation in G2/M phase at 10 uM after 48 hrs using propidium iodide staining by flow cytometry relative to control; type: functional
MIA PaCa-2 [12] = experiment: Cell cycle arrest in human MIAPaCa2 cells assessed as accumulation in G1 phase at 5 uM after 24 hrs using propidium iodide staining by flow cytometry relative to control; type: functional
MIA PaCa-2 [13] = experiment: Antiproliferative activity against human MIAPaCa2 cells after 72 hrs by MTT assay; type: functional, cell-based; conditions: MIA PaCa-2, 72 h; for CC50: read-out: LC50 (the source's name)
SK-BR-3 [14] = experiment: Cell cycle arrest in human SKBR3 cells assessed as accumulation in sub-G1 phase at 5 uM after 48 hrs using propidium iodide staining by flow cytometry relative to control; type: functional
HeLa [15] = experiment: Cell cycle arrest in human HeLa cells assessed as accumulation in S phase at 10 uM after 48 hrs using propidium iodide staining by flow cytometry relative to control; type: functional
HeLa [16] = experiment: Cell cycle arrest in human HeLa cells assessed as accumulation in sub-G1 phase at 10 uM after 24 hrs using propidium iodide staining by flow cytometry relative to control; type: functional
MIA PaCa-2 [17] = experiment: Cell cycle arrest in human MIAPaCa2 cells assessed as accumulation in sub-G1 phase at 5 uM after 48 hrs using propidium iodide staining by flow cytometry relative to control; type: functional
SK-BR-3 [18] = experiment: Cell cycle arrest in human SKBR3 cells assessed as accumulation in S phase at 10 uM after 48 hrs using propidium iodide staining by flow cytometry relative to control; type: functional
MCF7 = experiment: Antiproliferative activity against human MCF7 cells after 72 hrs by MTT assay; type: functional, cell-based; conditions: MCF7, 72 h; for CC50: read-out: LC50 (the source's name)
MIA PaCa-2 [19] = experiment: Cell cycle arrest in human MIAPaCa2 cells assessed as accumulation in S phase at 10 uM after 48 hrs using propidium iodide staining by flow cytometry relative to control; type: functional
SK-BR-3 [20] = experiment: Cell cycle arrest in human SKBR3 cells assessed as accumulation in G1 phase at 10 uM after 24 hrs using propidium iodide staining by flow cytometry relative to control; type: functional
HeLa [21] = experiment: Cell cycle arrest in human HeLa cells assessed as accumulation in G2/M phase at 5 uM after 24 hrs using propidium iodide staining by flow cytometry relative to control; type: functional
SK-BR-3 [22] = experiment: Cell cycle arrest in human SKBR3 cells assessed as accumulation in S phase at 10 uM after 24 hrs using propidium iodide staining by flow cytometry relative to control; type: functional
MIA PaCa-2 [23] = experiment: Cell cycle arrest in human MIAPaCa2 cells assessed as accumulation in G2/M phase at 10 uM after 48 hrs using propidium iodide staining by flow cytometry relative to control; type: functional
SK-BR-3 [24] = experiment: Induction of apoptosis in human SKBR3 cells at 10 uM after 48 hrs using propidium iodide/Annexin-V staining by flow cytometry relative to control; type: functional
MIA PaCa-2 [25] = experiment: Cell cycle arrest in human MIAPaCa2 cells assessed as accumulation in sub-G1 phase at 10 uM after 24 hrs using propidium iodide staining by flow cytometry relative to control; type: functional
MIA PaCa-2 [26] = experiment: Cell cycle arrest in human MIAPaCa2 cells assessed as accumulation in sub-G1 phase at 5 uM after 24 hrs using propidium iodide staining by flow cytometry relative to control; type: functional
SK-BR-3 [27] = experiment: Cell cycle arrest in human SKBR3 cells assessed as accumulation in G1 phase at 5 uM after 24 hrs using propidium iodide staining by flow cytometry relative to control; type: functional
MIA PaCa-2 [28] = experiment: Cell cycle arrest in human MIAPaCa2 cells assessed as accumulation in S phase at 5 uM after 24 hrs using propidium iodide staining by flow cytometry relative to control; type: functional
SK-BR-3 [29] = experiment: Induction of apoptosis in human SKBR3 cells at 10 uM after 24 hrs using propidium iodide/Annexin-V staining by flow cytometry relative to control; type: functional
HeLa [30] = experiment: Antiproliferative activity against human HeLa cells after 72 hrs by MTT assay; type: functional, cell-based; conditions: for CC50: read-out: LC50 (the source's name)
SK-BR-3 [31] = experiment: Cell cycle arrest in human SKBR3 cells assessed as accumulation in G1 phase at 5 uM after 48 hrs using propidium iodide staining by flow cytometry relative to control; type: functional
SK-BR-3 [32] = experiment: Cell cycle arrest in human SKBR3 cells assessed as accumulation in G2/M phase at 10 uM after 24 hrs using propidium iodide staining by flow cytometry relative to control; type: functional
HeLa [33] = experiment: Cell cycle arrest in human HeLa cells assessed as accumulation in S phase at 5 uM after 24 hrs using propidium iodide staining by flow cytometry relative to control; type: functional
MIA PaCa-2 [34] = experiment: Cell cycle arrest in human MIAPaCa2 cells assessed as accumulation in G2/M phase at 10 uM after 24 hrs using propidium iodide staining by flow cytometry relative to control; type: functional
MIA PaCa-2 [35] = experiment: Cell cycle arrest in human MIAPaCa2 cells assessed as accumulation in S phase at 5 uM after 48 hrs using propidium iodide staining by flow cytometry relative to control; type: functional
SK-BR-3 [36] = experiment: Cell cycle arrest in human SKBR3 cells assessed as accumulation in S phase at 5 uM after 24 hrs using propidium iodide staining by flow cytometry relative to control; type: functional
MIA PaCa-2 [37] = experiment: Cell cycle arrest in human MIAPaCa2 cells assessed as accumulation in S phase at 10 uM after 24 hrs using propidium iodide staining by flow cytometry relative to control; type: functional

Cl.Cl.c1cc(-c2nc3ccc(C4=NCCN4)cc3s2)cc(-c2nc3ccc(C4=NCCN4)cc3s2)c1
Activity (HeLa [1]): 15.5% | Activity (SK-BR-3 [2]): 23.1% | IC50 (SW-620): 0.47 µM | CC50 (SW-620): 6.19 µM | Activity (SK-BR-3 [3]): 22.1% | Activity (HeLa [4]): 31.7% | Activity (HeLa [5]): 2.1% | Activity (MIA PaCa-2 [6]): 17.1% | Activity (SK-BR-3 [7]): 4.2% | Activity (MIA PaCa-2 [8]): 42.8% | Activity (HeLa [9]): 13.3% | Activity (MIA PaCa-2 [10]): 52.1% | Activity (HeLa [11]): 13.2% | Activity (MIA PaCa-2 [12]): 60.2% | IC50 (MIA PaCa-2 [13]): 0.26 µM | CC50 (MIA PaCa-2 [13]): 1.49 µM | Activity (SK-BR-3 [14]): 21.6% | Activity (HeLa [15]): 71.4% | Activity (HeLa [16]): 12.5% | Activity (MIA PaCa-2 [17]): 20.4% | Activity (SK-BR-3 [18]): 67.8% | IC50 (MCF7): > 100 µM | CC50 (MCF7): 5.3 µM | Activity (MIA PaCa-2 [19]): 50.8% | Activity (SK-BR-3 [20]): 28.7% | Activity (HeLa [21]): 24% | Activity (SK-BR-3 [22]): 62.1% | Activity (MIA PaCa-2 [23]): 8.6% | Activity (SK-BR-3 [24]): 75% | Activity (MIA PaCa-2 [25]): 8.1% | Activity (MIA PaCa-2 [26]): 17.7% | Activity (SK-BR-3 [27]): 34.5% | Activity (MIA PaCa-2 [28]): 33.6% | Activity (SK-BR-3 [29]): 8% | IC50 (HeLa [30]): 2.06 µM | CC50 (HeLa [30]): 7.38 µM | Activity (SK-BR-3 [31]): 36.2% | Activity (SK-BR-3 [32]): 17.8% | Activity (HeLa [33]): 38.4% | Activity (MIA PaCa-2 [34]): 21.3% | Activity (MIA PaCa-2 [35]): 30.8% | Activity (SK-BR-3 [36]): 58.9% | Activity (MIA PaCa-2 [37]): 49.1%

Cl.Cl.c1cc2nc(-c3ccc(-c4nc5ccc(C6=NCCN6)cc5s4)cc3)sc2cc1C1=NCCN1
Activity (HeLa [1]): 23.2% | Activity (SK-BR-3 [2]): 31.6% | IC50 (SW-620): 7.65 µM | CC50 (SW-620): > 100 µM | Activity (SK-BR-3 [3]): 41.3% | Activity (HeLa [4]): 34.2% | Activity (HeLa [5]): 7.2% | Activity (MIA PaCa-2 [6]): 18.4% | Activity (SK-BR-3 [7]): 11.6% | Activity (MIA PaCa-2 [8]): 40.6% | Activity (HeLa [9]): 22.7% | Activity (MIA PaCa-2 [10]): 45.9% | Activity (HeLa [11]): 14.5% | Activity (MIA PaCa-2 [12]): 35.2% | IC50 (MIA PaCa-2 [13]): 3.54 µM | CC50 (MIA PaCa-2 [13]): 36.7 µM | Activity (SK-BR-3 [14]): 27.5% | Activity (HeLa [15]): 44% | Activity (HeLa [16]): 15.5% | Activity (MIA PaCa-2 [17]): 35.7% | Activity (SK-BR-3 [18]): 42.3% | IC50 (MCF7): 3.07 µM | CC50 (MCF7): > 100 µM | Activity (MIA PaCa-2 [19]): 40.9% | Activity (SK-BR-3 [20]): 50.9% | Activity (HeLa [21]): 13.4% | Activity (SK-BR-3 [22]): 39.1% | Activity (MIA PaCa-2 [23]): 18.4% | Activity (SK-BR-3 [24]): 15% | Activity (MIA PaCa-2 [25]): 33.1% | Activity (MIA PaCa-2 [26]): 34.4% | Activity (SK-BR-3 [27]): 58.9% | Activity (MIA PaCa-2 [28]): 55% | Activity (SK-BR-3 [29]): 5% | IC50 (HeLa [30]): 7.75 µM | CC50 (HeLa [30]): 71.1 µM | Activity (SK-BR-3 [31]): 53.6% | Activity (SK-BR-3 [32]): 14.5% | Activity (HeLa [33]): 44.5% | Activity (MIA PaCa-2 [34]): 19% | Activity (MIA PaCa-2 [35]): 35.8% | Activity (SK-BR-3 [36]): 33.5% | Activity (MIA PaCa-2 [37]): 40.1%
